From patent US5109025A, “Therapeutic agent for penal disorders” (Dainippon Ink and Chemicals, Inc., priority 1988, dated 1992)
Structures can show the parent of a compound that is named as a salt.

Assays:
mast cells = assay: Antiallergic activity: inhibition of histamine liberation from mast cells by Compound 48/80; format: cell-based, rat; conditions: for Liberation Ratio of Histamine / inhibition at 30 µM: 0.03 mM, Compound 48/80-induced; for Liberation Ratio of Histamine: control 82.4, blank 3.4; for inhibition at 30 µM: Rattus norvegicus, Mast cell, read-out: Inhibition Ratio (histamine liberation)
Method: Locke's solution (10 ml) containing 0.1% by weight of bovine serum albumin was injected into the abdominal cavity of a rat which had been sacrificed by exsanguination. The rat was lightly massaged, then subjected to an abdominal section so that an abdominal solution was collected. The abdominal cavity was also washed with 5 ml of the same solution and the washing solution was collected and mixed with the above abdominal solution. The abdominal solution was centrifuged at 500 rpm for 5 minutes, then 5 ml of cool Locke's solution was added to the sediment. After the sediment had been washed, 3 ml of cool Locke's solution was again added thereto to form a solution of rat peritoneal exudation cells.
Locke's solution (0.5 ml) and 1.0 ml of THC or isoliquiritigenin solution prepared in a concentration of 0.03 mM (THC or isoliquiritigenin was dissolved in a physiological saline solution containing 1% sodium bicarbonate, the resultant solution being diluted with Locke's solution) was added to 0.3 ml of the solution of rat peritoneal exudation cells obtained in (1) above and were incubated at 37° C. for 5 minutes. Then, 0.2 ml each of a Lock's solution of Compound 48/80 (1 mg/100 ml) was added to the solution and the mixture was incubated at 37° C. for 10 minutes. After the reaction was stopped by cooling, the obtained solution was centrifuged at 2,500 rpm for 10 minutes to separate into 1.7 ml of supernatant and 0.3 ml of sediment. Water (0.1 ml) and 0.2 ml of 100% trichloroacetic acid were added to the supernatant, and 1.5 ml of Locke's solution and the 100% trichloroacetic acid were added to the sediment which was then allowed to stand for 30 minutes at room temperature and was centrifuged at 3000 rpm for 15 minutes. A portion (0.35 ml) of each of the supernatant and the supernatant of the sediment was taken and 1.65 ml of water and 0.4 ml of 1N sodium hydroxide were added in turn to each of the supernatants. 0.5% OPT (orthophthalaldehyde) methanol solution (0.1 ml) was added to each of the resultant solutions which were then allowed to react at room temperature for 4 minutes. After the reaction was stopped by the addition of 0.2 ml of 2M citric acid, the fluorescence of each of the reaction solutions was measured by a fluorophotometer.
As a control, Locke's solution was added instead of the solution of THC and, as a blank, the Locke's solution was added instead of THC and Compound 48/80, the other operations being the same as those described above.
The inhibition ratio of THC or isoliquiritigenin for the liberation of histamine by Compound 48/80 is calculated from the following equations: [formula] Ps: Amount of free histamines (in the supernatant) Pr: Amount of remaining histamines (in the sediment) [formula] I: Value of A of THC or isoliquiritigenin C: Value of A of the control
B: Value of A of the blank

[1] = tested on: kidney injury induced by cis-platinum; assay: Cis-platinum-induced kidney injury model test; format: in vivo, ddy male mice; conditions: for Blood Urea Nitrogen: 100 mg/kg/day oral, 5 days before and 5 days after 17 mg/kg s.c. cis-platinum, serum, mice, **: P < 0.01, *: P < 0.05 vs cis-platinum group (114.7 ± 18.4)
Method: In this example, tests were conducted to examine the therapeutical activity of THC against kidney injury induced by cis-platinum (cis-DDP) which is an anti-cancer drug and is known to have a very strong effect of inducing functional disorders of the kidney.
A group of ten ddy male mice each weighing from 20 to 25 g were orally administered with 100 mg/kg/day of THC or isoliquiritigenin (positive comparative compound) for 5 continuous days, subcutaneously injected with 17 mg/kg of cis-platinum once on the fifth day, and were treated moreover for 5 continuous days orally administered with THC or isoliquiritigenin in the same manner as above. Thereafter, blood samples were collected, and blood urea nitrogen (BUN) in the serum was measured.
In the test, a group of ten non-treated ddy male mice each weighing from 20 to 25 g were subcutaneously administered once with 17 mg/kg of cis-platinum only. This group was used as control.
For the measurement of blood urea nitrogen, there was used Urea NB-Test Wako (produced by Wako Pure Chemical Industry Co., Ltd.).

ddy mice = assay: Toxicity test: minimum lethal dose; format: in vivo; conditions: 5-week old male ddy mice
Method: In this example, tests were conducted to confirm the safety of THC, which is the active ingredient of the drug of the present invention.
THC was administered by oral administration or intraperitoneal injection to five 5-week old male ddy mice.

[2] = tested on: carragheenin-induced paw edema; assay: Antiinflammatory activity: carragheenin-induced paw edema; format: in vivo, SD male rat; conditions: 300 mg/kg, oral, 60 minutes before carragheenin; rat
Method: The antiinflammatory activity of THC was tested by using carragheenin-induced paw edema method widely used for the evaluation of the effectiveness of general antiinflammatory drugs (NSAID).
A 1%-λ-carragheenin physiological saline solution (0.1 ml) was subcutaneously injected to the right paw of an SD male rat weighing from 200 to 250 g, and the volume of paw was measured after 30, 60, 90, 120, 180 and 300 minutes, respectively. The test drug (THC) had been administered orally in a dosage of 1.0 ml/200 g 60 minutes before the administration of carragheenin. The control group was administered orally with the solvent only in the same dosage. Edema ratio was calculated according to the following equation.
Edema Ratio=[(Ps-P0)/P0 ]×100
where Ps stands for value measured at a point in time after elapse of a predetermined time, and P0 value indicates a value measured at 0 minute after the administration.

[3] = tested on: hydrochloric acid-ethanol-induced ulcer; assay: Antiulcer activity: HCl-ethanol ulcer model test; format: in vivo, SD male rats; conditions: for Inhibition Ratio (ulcer) / Ulcer Index: Dose 100 (unit not given), oral, n = 5 rats; for Ulcer Index: **: P < 0.01 vs control group (46.7 ± 34.6)
Method: Antiulcer activity was tested using hydrochloric acid-ethanol-induced ulcer model test which is widely used for evaluating the effectiveness of antiulcer drugs.
A group of five SD male rats each weighing from 200 to 250 g were starved for 24 hours, and then administered orally with 1.0 ml/200 g of 150 mM hydrochloric acid-60% ethanol. After 1 hour, the animals were sacrificed with ether, and the stomach was taken out from each animal. After pouring 10 ml of physiological saline in each of them the stomachs were dipped in 1% formalin solution for 10 minutes to fix them. Each of the stomachs was incised along the greater curvature (curvatura ventriculi major) and the lengths of mucosal ulcers which appeared in the gastric gland portion were measured under microscope (×10). The sum of the lengths per animal was calculated and defined as ulcer index. Test drugs were administered orally in a dose of 1,0 ml/200 g after 10 minutes from the induction of stress. Cetraxate hydrochloride known as antiulcer drug was used as positive comparative compound.

[4] = compared with isoliquiritigenin

SMILES	Liberation Ratio of Histamine (mast cells)	inhibition at 30 µM (mast cells)	Blood Urea Nitrogen [1]	inhibition effect on histamine liberation from rat mast cells caused by Compound 48/80 (in words) (mast cells; [4])	minimum lethal dose (ddy mice; intraperitoneal injection)	minimum lethal dose (ddy mice; oral administration)	suppression of the increase in blood urea nitrogen due to kidney injury induced by cis-platinum (in words) [1, 4]	inhibitory effect against carragheenin-induced edema [2]	Inhibition Ratio (ulcer) [3]	Ulcer Index [3]	inhibitory activity against hydrochloric acid-ethanol-induced ulcer (in words) ([3]; rat)
O=C(/C=C/c1ccc(O)cc1)c1ccc(O)cc1O [isoliquiritigenin, reference compound]	71.2%	14.2%	70.6 ± 14.0	–	–	–	–	–	–	–	–
O=C(/C=C/c1ccc(O)c(O)c1)c1ccc(O)cc1O [THC, 2',3,4,4'-tetrahydroxychalcone]	10.4%	91.1%	47.1 ± 12.6	more potent than isoliquiritigenin	not less than 1,000 mg/kg	not less than 3,000 mg/kg	more potently than isoliquiritigenin	marked inhibitory effect	97.3	1.2 ± 2.5	remarkable inhibitory activity
NC[C@H]1CC[C@H](C(=O)Oc2ccc(CCC(=O)O)cc2)CC1 [Cetraxate hydrochloride, reference compound]	–	–	–	–	–	–	–	–	75.7	11.2 ± 20.0	–
